The source of these data is ChEMBL document CHEMBL1151611, “Antimicrobial principles from in vitro tissue culture of Peganum harmala” (J Nat Prod, 1984).

The source made the active and inactive calls. The rule behind the calls is not given here.

Common to all, as to type: functional, organism-based
The subject of assay [1] is Staphylococcus aureus. The experiment in a line: Antimicrobial activity against Staphylococcus aureus.
For assay [2], the system named is Escherichia coli. The experiment in a line: Antimicrobial activity against Escherichia coli.
The subject of assay [3] is Candida albicans. As to the kind of experiment: Antimicrobial activity against Candida albicans.

For the compound `O=c1c(O)c(-c2ccc(O)c(O)c2)oc2cc(O)cc(O)c12`, the result in assay [1] and in assay [2] was Active. Further, the outcome in assay [3] was inactive.
As to `O=c1c(O)c(-c2ccc(O)cc2)oc2cc(O)cc(O)c12`, the result in assay [1], in assay [2] and in assay [3] was Active.
